Data on 21 compounds can be found in patent US20020016293A1 (priority 2000, published 2002).

The test system of data set [1] is p-glycoprotein. As to conditions: cited from earlier work.
For data set [2], the system named is multidrug resistant cells. The following applies: no change in nonresistant parental cells; cited from earlier work.
The conditions of data set [3]: cited from earlier work; for absorption (in words): oral unless stated.
Data set [4] in a line: Plasma pharmacokinetics of flavopiridol and flavopiridol glucuronide in metastatic renal cancer patients (HPLC). The format is in vivo, human. An excerpt: All patients had metastatic renal cancer. […] Written informed consent was obtained from each patient in accordance with institutional and Federal guidelines. […] Toxicity assessment was done according to the Cancer and Leukemia Group B (CALGB) expanded toxicity criteria. For grade 3 or greater diarrheal episodes, patients were given loperamide or diphenoxylate hydrochloride plus atropine sulfate (Lomotil®). If diarrhea continued, treatment with octreotide acetate was begun. […] Heparinized blood samples were drawn at 23, 47, and 71 h into the infusion. Plasma was separated immediately by centrifugation and stored at −70° C. until analysis. Chemicals were obtained from Fisher Scientific (Itasca, Ill.) and Sigma Chemical Co. (St. Louis, Mo.). Quantitation of flavopiridol and its glucuronide in plasma was performed by high-pressure liquid chromatography (HPLC). […] Louis, Mo.), and these samples were incubated for 2 h (25° C.) prior to the addition of acetonitrile. […] Human plasma for the preparation of calibration standards was purchased from the Blood Bank at the University of Chicago Hospitals. […] Plasma samples for pharmacokinetics were collected during the first cycle of treatment (at 23, 47, and 71 h). […] Data are expressed as median values and interquartile range (the range of values between the 25th and the 75th percentile of the distribution). Significance has been tested by two-sided statistical tests. […] Moreover, Fisher's exact test was used to assess the association of flavopiridol systemic metabolism with the development of diarrhea. The distribution of the metabolic ratios at 71 h was investigated by constructing a frequency distribution histogram.

Data set [5] in a line: Diarrhea (CALGB expanded toxicity criteria) in patients given flavopiridol, by glucuronidation phenotype. The format is in vivo, human. From the text: Toxicity assessment was done according to the Cancer and Leukemia Group B (CALGB) expanded toxicity criteria. For grade 3 or greater diarrheal episodes, patients were given loperamide or diphenoxylate hydrochloride plus atropine sulfate (Lomotil®). If diarrhea continued, treatment with octreotide acetate was begun.
Data are expressed as median values and interquartile range (the range of values between the 25th and the 75th percentile of the distribution). Significance has been tested by two-sided statistical tests. […] For this analysis, the adjusted P<0.017 (0.05/3) was considered significant.
Poor and extensive glucuronidators had metabolic ratios lower and higher than 1.2, respectively.

Data set [6] in a line: FLAVO glucuronidation assay, normal human liver microsomes. The format is in vitro ADME. As to conditions: pooled human liver microsomes, pH 7.4; pool of human liver microsomes, substrate 0.1 to 3 mM, Lineweaver-Burke. A general note: Liver microsomes are a subcellular fraction often used to study metabolism.
Experimental: FLAVO glucuronidation assay. Reaction conditions were optimized using a range of substrate (0.02-1 mM), human liver microsomal protein (0.25-6 mg/ml) and UDPGA (2-10 mM) concentrations, as well as varying detergents (Brij 58, OLPC, CHAPS, Triton X-100, OLPC), and incubation times (0.5-4 h). […] The final incubation volume (250 μl) contained 50 mM tris-HCl (pH 7.4), 10 mM magnesium chloride, 0.5 mM FLAVO, 3 mg/ml protein, and 3 mM UDPGA. After incubation in a shaking water bath at 37° C. for 3 h, the reaction was terminated by the addition of 1 ml of acetonitrile. […] The supernatant was spiked with 100 μl of internal standard (100 μg/ml flavone in acetonitrile), and evaporated to dryness using nitrogen gas. Control experiments were performed simultaneously by omitting UDPGA. […] Aliquots (125 μl) were analyzed by high performance liquid chromatography (HPLC; Hitachi Instruments, Inc., San Jose, Calif., USA) with UV detection (265 nm). Reversed-phase chromatography was carried out using a μBondapak Phenyl column (10 μm, 3.9×300 mm; Waters Corporation, Milford, Mass., USA), and a μBondapak Phenyl guard-pak insert (Waters Corporation, Milford, Mass., USA).
Data analysis and statistics. Results were expressed as mean ± standard deviation (SD) of a single experiment performed in triplicate. […]
Data set [7] relates to neoplastic cells. The following applies: in vitro; cited from earlier work.
The subject of data set [8] is p-glycoprotein. As to conditions: cited from earlier work. This is another data set of the same source.
The test system of data set [9] is p-glycoprotein expressing cell lines. As to conditions: cited from earlier work.

Where a name gives a salt, the structure may show the parent alone. Read-outs that look alike come from different tables or passages of the source. Non-standard residues stand in square brackets, D forms with d. Residues, ends and D or L forms follow the SMILES beside them. ξ: configuration not given here. *: point of attachment. NMeI = CC[C@H](C)[C@H](NC)C(=O)O; NMeξIle = CC[C@H](C)C(NC)C(=O)O; NMeD = CN[C@@H](CC(=O)O)C(=O)O; NMeV = CN[C@H](C(=O)O)C(C)C; Pip = O=C(O)[C@@H]1CCCCN1; Lac = C[C@H](O)C(=O)O; OtBu = CC(C)(C)O* Where only a bound is given, the exact number is not on record here.

Usually Km stands for the concentration of substrate that gives half-maximal velocity.

Consider `C[C@@H]1C[C@H]2[C@@H]3CCC4=CC(=O)C=C[C@]4(C)C3=CC[C@]2(C)[C@H]1C(=O)CN1CCN(c2cc(N3CCCC3)nc(N3CCCC3)n2)CC1` [Tirilazad], for which the “inhibition of photoaffinity labeling of p-glycoprotein relative to verapamil” value in data set [1] is on record as “more effectively than does verapamil”. In addition, in [2], the “sensitization of resistant cells to killing by vinblastine” value is listed as 66 fold.

For `CCN1CCN(C(=O)N[C@@H](C(=O)N[C@@H]2C(=O)N3C(C(=O)O)=C(CSc4nnnn4C)CS[C@H]23)c2ccc(O)cc2)C(=O)C1=O` [Cefoperazone], in [3] (human, in vivo), the “eliminated by biliary secretion” value was 70% and the “eliminated by urinary excretion” value is 30%.

On to `CN1CC[C@H](c2c(O)cc(O)c3c(=O)cc(-c4ccccc4Cl)oc23)[C@H](O)C1` [flavopiridol], for which the “inter-patient variability of plasma level (coefficient of variation) at 23 h” value in data set [4] (23 h) worked out at 81%. Further, the concentration at 23 h in data set [4] (human, plasma, intravenous, 72 h-continuous infusion 50 mg/m2/day, first cycle, 23 h into the infusion, 22 patients, read-out: median plasma concentration (interquartile range) at 23 h) is 389 nM. Besides, the concentration at 47 h in data set [4] (human, plasma, intravenous, 72 h-continuous infusion 50 mg/m2/day, first cycle, 47 h into the infusion, read-out: median plasma concentration (interquartile range) at 47 h) came out at 412 nM. In addition, the concentration at 71 h in [4] (human, plasma, intravenous, 72 h-continuous infusion 50 mg/m2/day, first cycle, 71 h into the infusion, read-out: median plasma concentration (interquartile range) at 71 h) came out at 397 nM. Also, the “extensive glucuronidators who did not develop diarrhea” value in [5] (extensive glucuronidators) worked out at 73%. Besides, in data set [5] (first cycle), the “patients with grade 1 diarrhea” value is given as “Five”, the “patients with grade 2 diarrhea” value is “six” and the “patients with grade 3 diarrhea” value is recorded as “two”. Moreover, in [5] (metabolic ratio at 71 h higher than 1.2), the “extensive glucuronidators who did not develop diarrhea” value is given as 8 of 11. In addition, the “poor glucuronidators who developed diarrhea” value in data set [5] (metabolic ratio at 71 h lower than 1.2) is 10 of 11. In addition, in data set [5] (poor glucuronidators), the “diarrhea present in poor glucuronidators of flavopiridol” value was found to be 91%. For the same compound, the Michaelis-Menten constant (Km) at 3 h in data set [6] was found to be 642 µM. In data set [7], the “concentrations showing differential growth inhibitory activity” value is on record as “below 200 nM”.

For the compound `C=C[C@H]1C[N@@]2CC[C@H]1C[C@@H]2[C@@H](O)c1ccnc2ccc(OC)cc12` [Quinidine], the “elimination by hepatic biotransformation” value in data set [3] (human, in vivo) is 50-60%.

On to `CCC1(c2ccccc2)C(=O)NC(=O)NC1=O` [Phenobarbital, 2,4,6(1H,3H,5H)-Pyrimidinetrione, 5-ethyl-5-phenyl-], for which the “fraction of an oral dose absorbed” value in data set [3] (human, in vivo, po) was “Approximately 80%”. Also, in data set [3] (human, in vivo), the therapeutic plasma levels is 10 to 30 µg/mL and the “time to peak plasma levels” value is 16 to 18 h.

Take `CC[C@H](C)C1C(=O)N(C)[C@@H]([C@@H](C)CC)C(=O)NCC(=O)N(C)[C@@H](C(C)C)C(=O)N[C@@H](Cc2ccc(OC)cc2)C(=O)O[C@@H](C)C(=O)N2CCCC[C@H]2C(=O)N(C)[C@@H](C(C)C)C(=O)N[C@@H](C(C)C)C(=O)N(C)[C@@H](CC(=O)OC(C)(C)C)C(=O)N1C` (some centres unmarked) [SDZ 280-446] (cyclo(G[NMeV]Y(Me)[Lac][Pip][NMeV]V[NMeD](OtBu)[NMeξIle][NMeI])): the “p-glycoprotein inhibition relative to verapamil” value in data set [8] is “stronger inhibitors than verapamil”.

In the case of `CN1CC[C@H](c2c(O[C@@H]3O[C@H](C(=O)O)[C@@H](O)[C@H](O)[C@H]3O)cc(O)c3c(=O)cc(-c4ccccc4Cl)oc23)[C@H](O)C1` [flavopiridol glucuronide, 7-O-β-glucopyranuronosyl-flavopiridol], in data set [4] (human, in vivo), the “inter-patient variability of plasma level (coefficient of variation) at 23 h” value stood at 83%, the “inter-patient variability of plasma level (coefficient of variation) at 47 h” value was determined as 102% and the “inter-patient variability of plasma level (coefficient of variation) at 71 h” value was determined as 107%.

As for `O=C1NC(=O)C(c2ccccc2)(c2ccccc2)N1.[Na]` [Phenytoin Sodium, 2,4-Imidazolidinedione, 5,5-diphenyl-, monosodium salt], the lethal plasma levels in data set [3] (human, in vivo) is around 100 µg/mL.

Regarding `COC(=O)[C@H]1[C@H]2C[C@@H]3c4[nH]c5cc(OC)ccc5c4CCN3C[C@H]2C[C@@H](OC(=O)c2cc(OC)c(OC)c(OC)c2)[C@@H]1OC` [Reserpine, Yohimban-16-carboxylic acid, 11,17-dimethoxy-18-[(3,4,5-trimethoxybenzoyl)oxy]-, methyl ester, (3β, 16β, 17α, 18β, 20α)-], the “absorption (in words)” value in data set [3] was “absorbed poorly and erratically”.

For the compound “benzothiazepin-4(5H)-one, 3-(acetyloxy)-5-[2-(dimethylamino)ethyl]-2,3-dihydro-2-(4-methoxyphenyl)-, (+)-cis-, monohydrochloride [Diltiazem]”, in data set [3] (human, in vivo), the “bound to plasma protein” value is recorded as 70-80% and the “drug appearing unchanged in the urine” value is “Less than 4%”. For the same compound, in data set [3] (oral), the “fraction of an oral dose absorbed” value is 80%. The half-life entry in data set [3] (plasma/serum/elimination half-life as printed) is “about 4 hr”.

As to `OCCN1CCN(CC/C=C2\c3ccccc3Sc3ccc(C(F)(F)F)cc32)CC1` [trans-flupenthixol], in data set [9], the “potency for reversing MDR relative to equimolar concentrations of verapamil” value is reported as “two- to three-fold more potent”; the “reversal of resistance to doxorubicin, vincristine, and colchicine” value was “fully reversed resistance”.

As to `CN(C)CCCN1c2ccccc2Sc2ccc(Cl)cc21` [Chlorpromazine hydrochloride, 10H-Phenothiazine-10-propanamine, 2-chloro-N,N-dimethyl-, mono hydrochloride], the “volume of distribution after intramuscular administration” value in data set [3] (intramuscular) is given as 21.8 L/kg.

As to `OCCN1CCN(CCCN2c3ccccc3Sc3ccc(C(F)(F)F)cc32)CC1` [Fluphenazine hydrochloride], the “absorption (in words)” value in data set [3] is “absorbed rapidly”.

Take `CCCN(CCC)S(=O)(=O)c1ccc(C(=O)O)cc1` [Probenecid]: the “absorption (in words)” value in data set [3] is on record as “completely absorbed”.

For `Cc1ccc(C)c(OCCCC(C)(C)C(=O)O)c1` [gemfibrozil], in data set [3] (single dose 600 mg), the “plasma concentration after 2 hours” value is “about 15 Ug/ml” and the “plasma concentration after 9 hours” value is listed as around 5 Ug/ml.

On to `CCOC(=O)C1=C(C)NC(C)=C(C(=O)OC)C1c1cccc([N+](=O)[O-])c1` (centres unmarked) [Nitrendipine, 3,5-Pyridinedicarboxylic acid, 1,4-dihydro-2,6-dimethyl-4-(3-nitrophenyl)-, ethyl methyl ester], for which, in data set [3] (human, in vivo), the “bound to plasma protein” value is “About 98%” and the “half-life, average or usual value” was 12 h.

As for `CCOC(=O)C(C)(C)Oc1ccc(Cl)cc1` [Clofibrate, propanoic acid, 2-(4-chlorophenoxy)-2-methyl-,ethyl ester], in data set [3] (anuria), the half-life in anuria result is on record as “over 100 hr”. The “half-life, average or usual value” in [3] (human, in vivo) was 11 h. The fraction metabolized result in [3] (mostly to a glucuronide conjugate) is given as “About 60%”.

In the case of `CC(C)NCC(O)COc1cccc2ccccc12` (centres unmarked) [Propranolol], in data set [3] (human, in vivo), the “bound to plasma protein” value is recorded as “Approximately 90%”. Besides, in data set [3] (inter-individual), the “variability in plasma concentrations after oral administration” value is on record as “approximately 20 fold”.

Take `CC(C)(C)c1ccc(C(O)CCCN2CCC(C(O)(c3ccccc3)c3ccccc3)CC2)cc1` (stereo not drawn) [Terfenadine, 1-Piperidinebutanol, α-[4-(1,1-dimethylethyl)phenyl]-4-(hydroxydiphenylmethyl)-]: the “bound to plasma protein” value in [3] (human, in vivo) is given as 97%. In addition, the “absorption (in words)” value in data set [3] is “absorbed rapidly and almost completely”.

`CC[C@H](C)[C@H]1O[C@]2(CC[C@@H]1C)C[C@@H]1C[C@@H](C/C=C(\C)[C@@H](O[C@H]3C[C@H](OC)[C@@H](O[C@H]4C[C@H](OC)[C@@H](O)[C@H](C)O4)[C@H](C)O3)[C@@H](C)/C=C/C=C3\CO[C@@H]4[C@H](O)C(C)=C[C@@H](C(=O)O1)[C@]34O)O2` [ivermectin]: in [3] (oral administration), the “time to peak concentrations in plasma” value was at most 4 h. Moreover, the half-life result in data set [3] (verapamil: normal persons) is reported as “about 10 hours”.

As to `O=C1CN=C(c2ccccc2Cl)c2cc([N+](=O)[O-])ccc2N1` [Clonazepam, 2H-1,4-Benzodiazepin-2-one, 5-(2-chlorophenyl)-1,3-dihydro-7-nitro-], the therapeutic plasma levels in data set [3] (human, in vivo) was 0.02 to 0.08 µg/mL.
